From US20070254856A1, “Use of acetylsalicylic acid (ASA) in the application of a membrane lung” (priority 2006, published 2007)

Columns and labels:
[1] = system: patient treated with the membrane lung NovaLung iLA; assay: application of the membrane lung NovaLung iLA on a patient receiving ASA; scanning electron microscope image of the gas exchange membrane; assay type: in vivo, human
Procedure: A patient who required treatment with the NovaLung iLA was administered 50 mg of ASA daily for 1 week before application of the membrane lung. This administration of 50 mg of ASA daily was initially maintained during application of the membrane lung, but the medicament was discontinued one week before removal of the membrane lung. […] FIG. 1 is a scanning electron microscope image of the gas exchange membrane from the membrane lung which was removed and dismantled after a period of use of 14 days on the patient thus treated and medicated.

[2] = system: platelet aggregation; assay: platelet aggregation in the patient receiving ASA with NovaLung iLA treatment, standard clinical methods; assay type: in vivo, human
Procedure: The membrane lung NovaLung iLA itself was used in the manner described by Fischer el al., loc cit. The platelet aggregation was determined using standard clinical methods.

CC(=O)Oc1ccccc1C(=O)O [ASA, acetylsalicylic acid]
deposition of blood constituents on the gas exchange membrane (scanning electron microscope image, FIG. 1) ([1]; 50 mg ASA daily oral, membrane lung removed after period of use of 14 days on the patient): no deposition of blood constituents | gas exchange performance and flow resistance of the membrane lung to the blood stream ([1]; 50 mg ASA daily, membrane lung left on the patient for 2 weeks): without an appreciable reduction in gas exchange performance or an appreciable increase in the flow resistance | platelet aggregation (FIG. 3) ([2]; 50 mg ASA daily, during the second week of ASA administration): remained at its reduced value | platelet aggregation (FIG. 3) ([2]; 50 mg ASA daily, within the first week of ASA administration, when the membrane lung was connected): below 20% | platelet aggregation (FIG. 3) ([2]; two weeks after start of treatment with the membrane lung, 1 week after discontinuation of ASA): below 30%
